We go through 8 molecules from article PMC3003753 (Journal of medicinal chemistry, 2010).

Data set [1] can be described thus: Blood clearance and bioavailability of 26 in mice. The note with it: mouse, in vivo.
Data set [2] deals with CXCR4/CXCL12-mediated Matrigel invasion of MDA-MB-231 cells. The data set is described as follows: Matrigel invasion assay, CXCL12 as chemoattractant. In kind it is cell-based. Particulars: 10 nM compound, 200 ng/mL CXCL12, 0.01 µM.
For data set [3], the system named is carrageenan-induced mouse paw inflammation. The data set is described as follows: Carrageenan-induced paw edema model. In kind it is in vivo. The note with it: for Paw inflammation suppression compared with 4: 10 mg/kg i.p. versus 4 at 300 µg/kg; for Paw inflammation inhibition percentage: 10 mg/kg i.p. daily. For orientation: Carrageenan injected into the paw causes an acute inflammation.

The target in data set [4] is T1, CXCR4 (Homo sapiens, UniProt P61073). Description: Ca2+ flux induced by CXCR4/CXCL12 interaction. Particulars: Gq pathway; data not shown. It is filed as cell-based. For orientation: Calcium assays in cells follow changes in intracellular calcium, usually with a dye or a luminescent sensor.
The next data set deals with Melanoma OMM2.3 cells. The data set is described as follows: Uveal melanoma micrometastasis mouse model. It is filed as in vivo. Particulars: for Number of hepatic micrometastases: control around 90.
The target in data set [5] is T1, CXCR4. Description: cAMP assay. In kind it is cell-based. On the technique in general: cAMP levels reflect the balance of adenylyl cyclase and phosphodiesterase activity.
In a further data set the target is CCR5 (Homo sapiens, UniProt P51681). The data set is described as follows: cAMP assay, U87CD4CCR5 cells stimulated with CCL5. It is filed as cell-based. The note with it: 150 ng/mL CCL5.
For data set [6], the system named is bleomycin induced lung fibrosis. Description: Bleomycin induced lung fibrosis model. In kind it is in vivo, mouse. The note with it: 300 µg/kg i.p. daily, day 20 after bleomycin.
The subject of data set [7] is MDA-MB-231 cells in Matrigel plugs. The data set is described as follows: In vivo tumor angiogenesis assay. Further details: species or system mouse. The note with it: 300 µg/kg daily s.c., 10 days, nude mice.
Data set [8] can be described thus: Further preclinical studies of compound 5. In kind it is in vivo. Particulars: data not shown.

T1 sequence (P61073 whole entry): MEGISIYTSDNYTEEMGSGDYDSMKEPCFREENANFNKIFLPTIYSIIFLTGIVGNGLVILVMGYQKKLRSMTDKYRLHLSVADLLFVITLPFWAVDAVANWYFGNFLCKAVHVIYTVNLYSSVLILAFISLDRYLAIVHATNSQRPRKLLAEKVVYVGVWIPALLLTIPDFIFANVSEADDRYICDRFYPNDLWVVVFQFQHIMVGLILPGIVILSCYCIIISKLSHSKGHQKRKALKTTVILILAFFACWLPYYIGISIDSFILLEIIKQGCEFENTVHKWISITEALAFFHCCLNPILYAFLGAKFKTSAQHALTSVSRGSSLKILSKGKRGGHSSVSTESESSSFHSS
Chain of CCR5 (P51681 whole entry): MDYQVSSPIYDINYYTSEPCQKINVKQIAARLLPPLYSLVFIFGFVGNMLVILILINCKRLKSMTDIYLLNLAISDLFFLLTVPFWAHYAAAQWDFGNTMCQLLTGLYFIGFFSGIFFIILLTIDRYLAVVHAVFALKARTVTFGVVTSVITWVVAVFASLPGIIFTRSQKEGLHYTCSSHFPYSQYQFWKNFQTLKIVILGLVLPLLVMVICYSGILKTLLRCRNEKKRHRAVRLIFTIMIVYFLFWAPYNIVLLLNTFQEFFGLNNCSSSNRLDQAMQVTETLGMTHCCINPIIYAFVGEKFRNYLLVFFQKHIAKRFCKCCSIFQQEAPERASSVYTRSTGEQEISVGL

Regarding `Fc1cnc(Cl)nc1NCc1ccc(CNc2ccnc(NCCN3CCOCC3)n2)cc1` [Compound 26], the Oral bioavailability entry in data set [1] is “lack of oral bioavailability”. Also, the “Invasion Inhibition 10nM” value in data set [2] is above 60%. Further, the “Paw inflammation suppression compared with 4” value in data set [3] is reported as “comparable to 4”. Besides, the “Block of Ca2+ flux induced by CXCR4/CXCL12 interaction” value on CXCR4 [4] is on record as “do not block”. Further, the “Number of hepatic micrometastases” value with Melanoma OMM2.3 cells (10 mg/kg i.p. daily) is given as “around 40”. Further, at CXCR4 [5], the IC50 is around 1 nM and the “Interrupting CXCL12/CXCR4-mediated cAMP modulation” value is “effective”. Besides, the “Effect on blocking CCL5 stimulating CCR5 (cAMP)” value (“Effect” for short) at CCR5 is recorded as “no significant effect”.
TN14003 [Compound 4]: in data set [3] (300 µg/kg i.p. daily, C57BL/6J mice), the Paw inflammation suppression entry is “about 50%”. For the same molecule, in data set [6], the Lung fibrosis inhibition is 85%. Moreover, the “Decrease of hepatic micrometastases” value with Melanoma OMM2.3 cells (300 µg/kg i.p. daily, nude mice) is listed as “about 50%”. In addition, in the data set on Melanoma OMM2.3 cells (300 µg/kg i.p. daily), the “Number of hepatic micrometastases” value is given as “around 40”. Also, the “Angiogenesis inhibition (hemoglobin content of Matrigel plugs)” value in data set [7] is “about 70%”.
Turning to `Fc1cccc(NCc2ccc(CNc3ncccn3)cc2)n1` [Compound 10e, N-(4-((6-fluoropyridin-2-ylamino)methyl)benzyl)pyrimidin-2-amine], the “Paw inflammation inhibition percentage” value in [3] (C57BL/6J mice) was “more than 50%”. Besides, the “Paw inflammation suppression compared with 4” value in data set [3] is “comparable to 4”.
For `Clc1cccc(NCc2ccc(CNc3ncccn3)cc2)n1` [Compound 10g, N-(4-((6-chloropyridin-2-ylamino)methyl)benzyl)pyrimidin-2-amine] the same measures were “more than 50%” and “comparable to 4”.
Regarding `Fc1cnc(NCc2ccc(CNc3nccc(C(F)(F)F)n3)cc2)nc1` [Compound 21a, N-(4-((5-fluoropyrimidin-2-ylamino)methyl)benzyl)-4-(trifluoromethyl)pyrimidin-2-amine], at CXCR4 [4], the “Block of Ca2+ flux induced by CXCR4/CXCL12 interaction” value is recorded as “do not block”. The “Interrupting CXCL12/CXCR4-mediated cAMP modulation” value at CXCR4 [5] is recorded as “effective”.
As to `CCOCCN1CCN(C(=O)c2cnc(NCc3ccc(CNc4ncc(F)cn4)cc3)nc2C(F)(F)F)CC1` [Compound 21c, (4-(2-ethoxyethyl)piperazin-1-yl)(2-(4-((5-fluoropyrimidin-2-ylamino)methyl)benzylamino)-4-(trifluoromethyl)pyrimidin-5-yl)methanone], the “Effect” value at CCR5 was “no significant effect”.
For `c1ccc(NCc2ccc(CNc3ccccn3)cc2)nc1` [Compound 5, WZ811], in data set [8], the Bioavailability entry is given as “poor bioavailability” and the In vivo efficacy result is reported as “failed to exhibit any in vivo efficacy”. Further, the “Effect” value on CCR5 was “no significant effect”.
For the molecule `CSc1nccc(NCc2ccc(CNc3ncc(F)cn3)cc2)n1` [Compound 21b, 5-fluoro-N-(4-((2-(methylthio)pyrimidin-4-ylamino)methyl)benzyl)pyrimidin-2-amine], in data set [2], the “Invasion Inhibition 10nM” value is recorded as 62%. The “Paw inflammation suppression compared with 4” value in data set [3] was “comparable to 4”.

As a reminder, the IC50 is the concentration that inhibits the measured activity by half. The low end stands for greater potency in that assay, the high end for weaker potency in that assay.
